Measurements taken from US20100248390A1, “COMPOSITIONS AND METHODS FOR IDENTIFYING LIGANDS OF ODORANT RECEPTORS” (DUKE UNIVERSITY, priority 2009, published 2010).
Where a name gives a salt, the structure may show the parent alone. Read-outs that look alike come from different tables or passages of the source. One block for each compound: values may come before it.

What was measured:
[1] = system: mouse odorant receptors (ORs); assay: CRE-luciferase assay of odorant receptor activation (Dual-Glo, Hana3A cells, RTP1S), dose-response EC50; format: cell-based; conditions: for log EC50, MOR271-1 / log EC50 (Table 4 value), MOR271-1: receptor MOR271-1; for log EC50 (Table 4 value), MOR258-17: receptor MOR258-17; for log EC50 (Table 4 value), MOR273-1: receptor MOR273-1; for log EC50 (Table 4 value), MOR5-1: receptor MOR5-1
Text: (§1) Cloning mouse and human ORs. […] OR open reading frames were amplified from genomic DNA using proofreading KOD DNA polymerase (Toyobo/Novagen) and subcloned into pCI expression vectors (Promega) containing the first 20 residues of human rhodopsin (Rho tag). The sequences of the cloned receptors were verified by sequencing (3100 Genetic Analyzer, ABI Biosystems). Immunocytochemistry and FACS analysis. […] For FACS analysis, phycoerythrin (PE)-conjugated anti-mouse IgG (Jackson Immunologicals) was used. In order to monitor the transfection efficiency, Green Fluorescent Protein (GFP) was co-transfected with the OR. The intensity of receptor cell surface expression was calculated as the ratio of PE and GFP expression. 7-aminoactinomycin D (Calbiochem) was added before flow cytometry to mark dead cells which were excluded from the analysis. The gate and mean of PE positive cells was normalized by GFP values. Luciferase assay. […] Odorant receptor activation leads to an increase in intracellular cAMP; CRE-luciferase (Stratagene) was used to measure this change. […] Hana3A cells were plated on poly-D-lysine-coated 96-well plates (BioCoat; Becton Dickinson). […] For each 96-well plate transfected, 1 μg of CRE-Luc, 1 μg of pRL-SV40, 5 μg of odorant receptor plasmid, and 1 μg of RTP1S was used. Approximately 24 hours post transfection, the medium was replaced with CD293 chemically defined medium (Gibco) and the plate was incubed for 30 min at 37° C. The medium was then replaced with 25 μL of odorant solution diluted in CD293 and the plate was incubated for 4 hrs at 37° C. and 5% CO2. The manufacturer's protocols for measuring luciferase and Renilla luciferase activities was followed. […] All luminescence values were divided by the Renilla Luciferase activity to control for transfection efficiency in a given well. Normalized luciferase activity was calculated using the formula (LN−Lmin)/(Lmax−Lmin), where LN is the luminescence of firefly luciferase in response to the odorant, Lmin is the minimum luciferase value on a plate or set of plates, and Lmax is the maximum luciferase value on a plate or set of plates. The data was analyzed using Microsoft Excel and GraphPad Prism 4. Screening procedure. The entire OR library was stimulated with eight separate odorant mixtures formed from 93 odorants (FIG. 12). […] A comparison between the 93 individual odorants at a 100 μM dose and a no-odor control was performed for all 290 […]. Each comparison was performed in triplicate; statistical significance was assessed by t-test (uncorrected for multiple comparisons). […] A single odorant was used on each plate to avoid cross-contamination, and each OR odorant dose was tested at least three times. The data was fit to a sigmoidal curve. […] Physicochemical descriptors. […] Receptor descriptors. […] Correlations between descriptors and responses. […] All odorants for which there were fewer than 3 responsive receptors were eliminated. For all remaining odorant pairs the Pearson correlation between EC50 vectors and the Euclidean distance between descriptor vectors was calculated. The Pearson correlation between these two sets of distances was then measured. Optimizing descriptors. […] In this method one begins with an empty set of descriptors. Each descriptor is combined with the previous set of descriptors and correlation values are computed for all of these candidate sets of descriptors. To reduce overfitting, the data is randomly divided into ten subsets and correlation values are computed for each leave-one out subset. The final correlation coefficient for each set of descriptors is the average of the correlation coefficients for each subset. The set with the best correlation coefficient then becomes the new set of descriptors and the process is repeated until the correlation coefficient increases by less than 0.004 in three consecutive iterations.

[2] = biological target: T1, human odorant receptors (ORs) (Homo sapiens, UniProt Q9Y3N9); assay: as above; format: cell-based; conditions: receptor OR2W1
T1 construct: OR open reading frames were amplified from genomic DNA; expressed in transfected cells; host or cells: Hana3A cells, co-transfected with RTP1S, CRE-luciferase and pRL-SV40
T1 sequence (Q9Y3N9 1-320): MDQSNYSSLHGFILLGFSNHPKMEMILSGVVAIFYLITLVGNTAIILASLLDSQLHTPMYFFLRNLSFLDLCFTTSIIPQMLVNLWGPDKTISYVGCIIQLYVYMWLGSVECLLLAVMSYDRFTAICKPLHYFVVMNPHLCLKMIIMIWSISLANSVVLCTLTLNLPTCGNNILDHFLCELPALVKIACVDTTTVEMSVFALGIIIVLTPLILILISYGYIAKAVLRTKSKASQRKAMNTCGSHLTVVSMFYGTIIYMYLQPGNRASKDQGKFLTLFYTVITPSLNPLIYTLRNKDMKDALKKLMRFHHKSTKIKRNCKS
Text: as §1, with “For all remaining odorant pairs the Pearson correlation between EC50 vectors and the Euclidean distance between descriptor vectors was calculated.” left out, “subset.” for “subset. The set with the best correlation coefficient then becomes the new set of descriptors and the process is repeated until the correlation coefficient increases by less than 0.004 in three consecutive iterations.”
The entire OR library was stimulated with one of 8 odorant mixtures drawn from 93 odorants chosen to represent diverse functional groups, sizes, and structures (Table 3). Each mixture was applied at five different concentrations. […] The 93 odorants were then applied individually at 100 μM to the 290 mixture-responsive ORs.

[3] = read-out: log EC50 of odorant at OR2W1 (0 = no response) (converted)
[4] = read-out: log EC50 (Table 4 value), OR2W1 (converted)

Structure (SMILES): O=c1cc(O)c2ccccc2o1 [4-Hydroxycoumarin]
log EC50 (Table 4 value), MOR41-1 ([1]; receptor MOR41-1): −4.344

Structure (SMILES): CCCCCCCCC=O [Nonanal]
log EC50 of odorant at MOR30-1 (0 = no response) ([1]; receptor MOR30-1): −3.914
log EC50 of odorant at MOR33-1 (0 = no response) ([1]; receptor MOR33-1): −3.234
log EC50 of odorant at MOR37-1 (0 = no response) ([1]; receptor MOR37-1): −3.295
log EC50 of odorant at MOR40-1 (0 = no response) ([1]; receptor MOR40-1): −3.194
EC50 [2, 3]: 252 µM

Structure (SMILES): CCCCCCCCCC=O [Daconal]
log EC50 (Table 4 value), MOR30-1 ([1]; receptor MOR30-1): −4.033
log EC50 (Table 4 value), MOR37-1 ([1]; receptor MOR37-1): −3.477

Structure (SMILES): CCCCC(C)=O [2-Hexanone]
log EC50, MOR271-1 ([1]; 0 = no response): −4.936
log EC50, MOR272-1 ([1]; receptor MOR272-1, 0 = no response): −4.251
EC50 ([2]; 0 = no response, read-out: log EC50, OR2W1 (converted)): 73.3 µM

Structure (SMILES): CCCCOC=O [Butyl formate]
EC50 [2, 4]: 37.4 µM

Structure (SMILES): CCC(C(=O)O)c1ccccc1 (single isomer, unassigned; (-)) [(−)-2-Phenylbutric acid]
log EC50, MOR2-1 ([1]; receptor MOR2-1, 0 = no response): −2.982

Structure (SMILES): O=C1CCCCC1 [Cyclohexanone]
log EC50 (Table 4 value), MOR41-1 ([1]; receptor MOR41-1): −3.456
log EC50 (Table 4 value), MOR136-1 ([1]; receptor MOR136-1): −3.065
log EC50 (Table 4 value), MOR139-1 ([1]; receptor MOR139-1): −3.138
log EC50 (Table 4 value), MOR185-1 ([1]; receptor MOR185-1): −3.594
log EC50 (Table 4 value), MOR251-1 ([1]; receptor MOR251-1): −3.193
log EC50 (Table 4 value), MOR253-1 ([1]; receptor MOR253-1): −3.219
log EC50 (Table 4 value), MOR258-1 ([1]; receptor MOR258-1): −3.824
log EC50 (Table 4 value), MOR258-17 [1]: −4.1
log EC50 (Table 4 value), MOR271-1 [1]: −3.463
log EC50 (Table 4 value), MOR272-1 ([1]; receptor MOR272-1): −3.254
log EC50 (Table 4 value), MOR273-1 [1]: −3.208
log EC50 (Table 4 value), MOR277-1 ([1]; receptor MOR277-1): −3.568

Structure (SMILES): CCCCCCCCCC(=O)O [Decanoic acid]
log EC50 (Table 4 value), MOR5-1 [1]: −3.749
log EC50 (Table 4 value), MOR25-1 ([1]; receptor MOR25-1): −4.194
log EC50 (Table 4 value), MOR30-1 ([1]; receptor MOR30-1): −4.987
log EC50 (Table 4 value), MOR33-1 ([1]; receptor MOR33-1): −4.487
log EC50 (Table 4 value), MOR37-1 ([1]; receptor MOR37-1): −4.323
log EC50 (Table 4 value), MOR40-1 ([1]; receptor MOR40-1): −4.121
log EC50 (Table 4 value), MOR203-1 ([1]; receptor MOR203-1): −3.751
log EC50 (Table 4 value), MOR258-17 [1]: −4.627
log EC50 (Table 4 value), MOR260-1 ([1]; receptor MOR260-1): −3.542
EC50 [2, 4]: 175 µM

Structure (SMILES): COc1cc(C(=O)O)ccc1O [Vanillic acid]
log EC50 of odorant at MOR9-1 (0 = no response) ([1]; receptor MOR9-1): −6.334
log EC50 of odorant at MOR15-1 (0 = no response) ([1]; receptor MOR15-1): −3.587

Structure (SMILES): CCCCCCCC=O [Octanal]
EC50 [2, 3]: 43.6 µM

Structure (SMILES): c1ccccc1 [Benzene]
log EC50 (Table 4 value), MOR271-1 [1]: −4.005

Results, then the compound that gave them:

log EC50, MOR107-1 ([1]; receptor MOR107-1, 0 = no response): −3.704
log EC50, MOR128-2 ([1]; receptor MOR128-2, 0 = no response): −4.373
log EC50, MOR138-1 ([1]; receptor MOR138-1, 0 = no response): −4.952
log EC50, MOR139-1 ([1]; receptor MOR139-1, 0 = no response): −3.902
log EC50, MOR189-1 ([1]; receptor MOR189-1, 0 = no response): −4.839
log EC50, MOR277-1 ([1]; receptor MOR277-1, 0 = no response): −3.861
Structure (SMILES): CC12CCC(CC1=O)C2(C)C (stereo not drawn) [(−)-Camphor]

EC50 [2, 3]: 13.7 µM
Structure (SMILES): CCCCCCOC(C)=O [Hexyl acetate]

log EC50 (Table 4 value), OR2W1 [2]: −4.056
Structure (SMILES): CCCCCCC=O [Heptonal]

log EC50, MOR41-1 ([1]; receptor MOR41-1, 0 = no response): −3.537
Structure (SMILES): CCCCCO [1-Pentanol]

log EC50 (Table 4 value), MOR258-17 [1]: −4.462
Structure (SMILES): CCCCCOC(=O)CCCCC [Amyl hexanote]

log EC50 (Table 4 value), MOR1-1 ([1]; receptor MOR1-1): −3.823
log EC50 (Table 4 value), MOR5-1 [1]: −3.583
log EC50 (Table 4 value), MOR23-1 ([1]; receptor MOR23-1): −4.856
log EC50 (Table 4 value), MOR30-1 ([1]; receptor MOR30-1): −3.575
log EC50 (Table 4 value), MOR31-1 ([1]; receptor MOR31-1): −5.2
log EC50 (Table 4 value), MOR33-1 ([1]; receptor MOR33-1): −4.148
Structure (SMILES): CCCCCCC(=O)O [Heptanoic acid]

log EC50 of odorant at MOR1-1 (0 = no response) ([1]; receptor MOR1-1): −4.813
Structure (SMILES): CCCCC(=O)O [Pentanoic acid]

log EC50, MOR271-1 ([1]; 0 = no response): −5.111
Structure (SMILES): CCCC(C)=O [2-Penonone]

log EC50 (Table 4 value), MOR271-1 [1]: −4.077
log EC50 (Table 4 value), MOR272-1 ([1]; receptor MOR272-1): −5.25
log EC50 (Table 4 value), MOR273-1 [1]: −5.761
Structure (SMILES): CCOC(=O)C(C)C [Ethyl isobutyrate]
